The experiment relates to A375P cell line (melanoma). Description: Proliferation inhibition activity against A375P cell line (MTT assay). The experiment is classed as cell-based. To be noted: A375P melanoma cells; for GI50: MTT assay, read-out: A375P (GI50); for effects against A375P: statement in words. On the procedure: Measurement of Proliferation Inhibition Activity Against A375P Cell Line (Melanoma)
An A375P cell line purchased from ATCC was cultured in a DMEM medium [containing 10% FBS, 1% penicillin/streptomycin] at 37° C. in the presence of 5% CO2. The cultured A375P cell line was taken using 0.05% trypsin-0.02% EDTA, and seeded into a 96-well plate at a density of 5×10^3 cells per well.
Cell viability was measured using an MTT [3-(4,5-dimethylthiazol-2-yl)-2,5-diphenyltetrazolium bromide] assay (CellTiter 96 Assay, Promega) as follows. 15 μl of dye was placed per well, the cells were cultured for 2 hours, and then treated with 100 μl of a stop solution, and after 24 hours, absorbance was measured. One day after plating, they were treated with compounds. For treatment with compounds, […] of stock was prepared, and serially diluted to one-third in dimethyl sulfoxide (DMSO) to prepare a 12-point test compound plate, and 0.5 μl was added (final concentration DMSO 0.5%).
In the following Tables 1 to 3, in a case of GI50 being 10 to 30 μM, it was indicated as (+), in a case of it being 1 to 10 μM, it was indicated as (++), and in case of being less than 1 μM, it was indicated as (+++).
In general terms: Tetrazolium assays rely on reduction of a dye to a coloured formazan, in cell work by metabolically active cells.

A value given as a limit tells only on which side of the number the result lay.

What is called GI50 is the concentration that inhibits growth by half. Consider `O=C1CC(c2ccc(NC(=O)c3ccc(Cl)c(C(F)(F)F)c3)cc2)=Nc2cscc2N1` [Example 1, 4-chloro-N-(4-(2-oxo-2,3-dihydro-1H-thieno[3,4-b][1,4]diazepine-4-yl)phenyl)-3-(trifluoromethyl)benzamide], for which the concentration for 50% growth inhibition (GI50) is 1 to 10 µM.

Consider `Cc1cn(-c2cc(C(=O)Nc3ccc(C4=Nc5cscc5NC(=O)C4)cc3)cc(C(F)(F)F)c2)cn1` [Example 2, 3-(4-methyl-1H-imidazol-1-yl)-N-(4-(2-oxo-2,3-dihydro-1H-thieno[3,4-b][1,4]diazepine-4-yl)phenyl)-5-(trifluoromethyl)benzamide], for which the concentration for 50% growth inhibition (GI50) was below 1 µM and the “effects against A375P” value was “significant effects”. On the same counts, the results for `O=C1CC(c2ccc(NC(=O)c3cc(N4CCOCC4)cc(C(F)(F)F)c3)cc2)=Nc2cscc2N1` [Example 3, 3-morpholino-N-(4-(2-oxo-2,3-dihydro-1H-thieno[3,4-b][1,4]diazepine-4-yl)phenyl)-5-(trifluoromethyl)benzamide] are below 1 µM and “significant effects”. With `O=C1CC(c2ccc(NC(=O)c3ccc(N4CCOCC4)c(C(F)(F)F)c3)cc2)=Nc2cscc2N1` [Example 4, 4-morpholino-N-(4-(2-oxo-2,3-dihydro-1H-thieno[3,4-b][1,4]diazepine-4-yl)phenyl)-3-(trifluoromethyl)benzamide], the GI50 was 1 to 10 µM.

`O=C1CC(c2ccc(NC(=O)c3ccc(-c4ccccc4)cc3)cc2)=Nc2cscc2N1` [Example 5, N-(4-(2-oxo-2,3-dihydro-1H-thieno[3,4-b][1,4]diazepine-4-yl)phenyl)biphenyl-4-carboxamide]: the GI50 was below 1 µM and the “effects against A375P” value is “significant effects”. Regarding `O=C1CC(c2ccc(NC(=O)c3ccccc3-c3ccccc3)cc2)=Nc2cscc2N1` [Example 6, N-(4-(2-oxo-2,3-dihydro-1H-thieno[3,4-b][1,4]diazepine-4-yl)phenyl)biphenyl-2-carboxamide], the GI50 was 10 to 30 µM. For the compound `O=C1CC(c2ccc(NC(=O)c3cnn(-c4ccccc4)c3C(F)(F)F)cc2)=Nc2cscc2N1` [Example 7, N-(4-(2-oxo-2,3-dihydro-1H-thieno[3,4-b][1,4]diazepine-4-yl)phenyl)-1-phenyl-5-(trifluoromethyl)-1H-pyrazole-4-carboxamide], the 50% growth inhibitory concentration (GI50) is 1 to 10 µM. Still for that read-out and setting: the result for `CC(=O)N1CCC(C(=O)Nc2ccc(C3=Nc4cscc4NC(=O)C3)cc2)CC1` [Example 8, 1-acetyl-N-(4-(2-oxo-2,3-dihydro-1H-thieno[3,4-b][1,4]diazepine-4-yl)phenyl)piperidine-4-carboxamide] reads 10 to 30 µM; that for `O=C1CC(c2ccc(NC(=O)C(c3ccc(Cl)cc3)c3ccc(Cl)cc3)cc2)=Nc2cscc2N1` [Example 9, 2,2-bis(4-chlorophenyl)-N-(4-(2-oxo-2,3-dihydro-1H-thieno[3,4-b][1,4]diazepine-4-yl)phenyl)acetamide], 10 to 30 µM; that for `O=C1CC(c2ccc(NC(=O)c3ccncc3)cc2)=Nc2cscc2N1` [Example 10, N-(4-(2-oxo-2,3-dihydro-1H-thieno[3,4-b][1,4]diazepine-4-yl)phenyl)isonicotinamide], 10 to 30 µM.

With `O=C1CC(c2ccc(NC(=O)c3cnccn3)cc2)=Nc2cscc2N1` [Example 11, N-(4-(2-oxo-2,3-dihydro-1H-thieno[3,4-b][1,4]diazepine-4-yl)phenyl)pyrazine-2-carboxamide], the GI50 was in the range of 10 to 30 µM. The same measure, in the same setting: the result for `CN1CCN(c2cc(C(=O)Nc3ccc(C4=Nc5cscc5NC(=O)C4)cc3)cc(C(F)(F)F)c2)CC1` [Example 12, 3-(4-methylpiperazine-1-yl)-N-(4-(2-oxo-2,3-dihydro-1H-thieno[3,4-b][1,4]diazepine-4-yl)phenyl)-5-(trifluoromethyl)benzamide] reads 10 to 30 µM; that for `O=C1CC(c2ccc(NC(=O)c3ccc(Cl)cc3)cc2)=Nc2cscc2N1` [Example 13, 4-chloro-N-(4-(2-oxo-2,3-dihydro-1H-thieno[3,4-b][1,4]diazepine-4-yl)phenyl)benzamide], 10 to 30 µM; that for `O=C(Cc1c[nH]c2ccccc12)Nc1ccc(C2=Nc3cscc3NC(=O)C2)cc1` [Example 14, 2-(1H-indol-3-yl)-N-(4-(2-oxo-2,3-dihydro-1H-thieno[3,4-b][1,4]diazepine-4-yl)phenyl)acetamide], 10 to 30 µM. Still for that read-out and setting: next, `N#Cc1ccccc1Sc1ccccc1C(=O)Nc1ccc(C2=Nc3cscc3NC(=O)C2)cc1` [Example 15, 2-(2-cyanophenylthio)-N-(4-(2-oxo-2,3-dihydro-1H-thieno[3,4-b][1,4]diazepine-4-yl)phenyl)benzamide]: 10 to 30 µM; `O=C(Cc1ccc(-c2ccccc2)cc1)Nc1ccc(C2=Nc3cscc3NC(=O)C2)cc1` [Example 16, 2-(biphenyl-4-yl)-N-(4-(2-oxo-2,3-dihydro-1H-thieno[3,4-b][1,4]diazebine-4-yl)phenyl)acetamide]: 10 to 30 µM; `Cc1cc(C)cc(C(=O)Nc2ccc(C3=Nc4cscc4NC(=O)C3)cc2)c1` [Example 17, 3,5-dimethyl-N-(4-(2-oxo-2,3-dihydro-1H-thieno[3,4-b][1,4]diazepine-4-yl)phenyl)benzamide]: 10 to 30 µM. On the same count and under the same terms, next, `O=C1CC(c2cccc(NC(=O)c3ccc(Cl)c(C(F)(F)F)c3)c2)=Nc2cscc2N1` [Example 18, 4-chloro-N-(3-(2-oxo-2,3-dihydro-1H-thieno[3,4-b][1,4]diazepine-4-yl)phenyl)-3-(trifluoromethyl)benzamide]: 1 to 10 µM; `Cc1cn(-c2cc(C(=O)Nc3cccc(C4=Nc5cscc5NC(=O)C4)c3)cc(C(F)(F)F)c2)cn1` [Example 19, 3-(4-methyl-1H-imidazol-1-yl)-N-(3-(2-oxo-2,3-dihydro-1H-thieno[3,4-b][1,4]diazepine-4-yl)phenyl)-5-(trifluoromethyl)benzamide]: 10 to 30 µM. `O=C1CC(c2cccc(NC(=O)c3cc(N4CCOCC4)cc(C(F)(F)F)c3)c2)=Nc2cscc2N1` [Example 20, 3-morpholino-N-(3-(2-oxo-2,3-dihydro-1H-thieno[3,4-b][1,4]diazepine-4-yl)phenyl)-5-(trifluoromethyl)benzamide]: the 50% growth inhibitory concentration (GI50) was below 1 µM and the “effects against A375P” value is “significant effects”.

For the compound `O=C1CC(c2cccc(NC(=O)c3ccc(N4CCOCC4)c(C(F)(F)F)c3)c2)=Nc2cscc2N1` [Example 21, 4-morpholino-N-(3-(2-oxo-2,3-dihydro-1H-thieno[3,4-b][1,4]diazepine-4-yl)phenyl)-3-(trifluoromethyl)benzamide], the concentration for 50% growth inhibition (GI50) was in the range of 1 to 10 µM. With `O=C1CC(c2cccc(NC(=O)c3ccc(-c4ccccc4)cc3)c2)=Nc2cscc2N1` [Example 22, N-(3-(2-oxo-2,3-dihydro-1H-thieno[3,4-b][1,4]diazepine-4-yl)phenyl)biphenyl-4-carboxamide], the GI50 was 10 to 30 µM. On the same count and under the same terms, the result for `O=C1CC(c2cccc(NC(=O)c3ccccc3-c3ccccc3)c2)=Nc2cscc2N1` [Example 23, N-(3-(2-oxo-2,3-dihydro-1H-thieno[3,4-b][1,4]diazepine-4-yl)phenyl)biphenyl-2-carboxamide] reads 10 to 30 µM. In the case of `O=C1CC(c2cccc(NC(=O)c3cnn(-c4ccccc4)c3C(F)(F)F)c2)=Nc2cscc2N1` [Example 24, N-(3-(2-oxo-2,3-dihydro-1H-thieno[3,4-b][1,4]diazepine-4-yl)phenyl)-1-phenyl-5-(trifluoromethyl)-1H-pyrazole-4-carboxamide], the concentration for 50% growth inhibition (GI50) is 10 to 30 µM. As for `CC(=O)N1CCC(C(=O)Nc2cccc(C3=Nc4cscc4NC(=O)C3)c2)CC1` [Example 25, 1-acetyl-N-(3-(2-oxo-2,3-dihydro-1H-thieno[3,4-b][1,4]diazepine-4-yl)phenyl)piperidine-4-carboxamide], the GI50 was 10 to 30 µM. `O=C1CC(c2cccc(NC(=O)C(c3ccc(Cl)cc3)c3ccc(Cl)cc3)c2)=Nc2cscc2N1` [Example 26, 2,2-bis(4-chlorophenyl)-N-(3-(2-oxo-2,3-dihydro-1H-thieno[3,4-b][1,4]diazepine-4-yl)phenyl)acetamide]: the GI50 lay in the range of 10 to 30 µM. The same measure, in the same setting: the result for `O=C1CC(c2cccc(NC(=O)c3ccncc3)c2)=Nc2cscc2N1` [Example 27, N-(3-(2-oxo-2,3-dihydro-1H-thieno[3,4-b][1,4]diazepine-4-yl)phenyl)isonicotinamide] reads 10 to 30 µM; that for `O=C1CC(c2cccc(NC(=O)c3cnccn3)c2)=Nc2cscc2N1` [Example 28, N-(3-(2-oxo-2,3-dihydro-1H-thieno[3,4-b][1,4]diazepine-4-yl)phenyl)pyrazine-2-carboxamide], 10 to 30 µM.

`CN1CCN(c2cc(C(=O)Nc3cccc(C4=Nc5cscc5NC(=O)C4)c3)cc(C(F)(F)F)c2)CC1` [Example 29, 3-(4-methylpiperazine-1-yl)-N-(3-(2-oxo-2,3-dihydro-1H-thieno[3,4-b][1,4]diazepine-4-yl)phenyl)-5-(trifluoromethyl)benzamide]: the GI50 is 10 to 30 µM. Same read-out and setting: next, `O=C1CC(c2cccc(NC(=O)c3ccc(Cl)cc3)c2)=Nc2cscc2N1` [Example 30, 4-chloro-N-(3-(2-oxo-2,3-dihydro-1H-thieno[3,4-b][1,4]diazepine-4-yl)phenyl)benzamide]: 10 to 30 µM; `O=C(Cc1c[nH]c2ccccc12)Nc1cccc(C2=Nc3cscc3NC(=O)C2)c1` [Example 31, 2-(1H-indol-3-yl)-N-(3-(2-oxo-2,3-dihydro-1H-thieno[3,4-b][1,4]diazepine-4-yl)phenyl)acetamide]: 10 to 30 µM.

Source of the values: patent publication US10174047B2, “Thienodiazepine derivatives or pharmaceutically acceptable salts thereof, and pharmaceutical composition including the same as an active ingredient” (Industry-University Cooperation Foundation Hanyang …, priority 2015, dated 2019).
